Reference: patent US20100267561A1, “HERBICIDAL PYRIDAZINONE DERIVATIVES” (priority 2007, published 2010)

Key:
Type in all cases: in vivo
rice (Oryza sativa) = assay: Test B flooded paddy test plant response
Method in brief: (§1)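 Paddy-water application to 2-leaf plants in pots held under 3 cm of flooding; response is a 0–100 visual control rating against controls after 13 to 15 days, and a dash marks a missing result.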

[1] = tested on: barnyardgrass (Echinochloa crus-galli); assay: Test B flooded paddy test plant response
Method in brief: as §1

[2] = tested on: umbrella sedge (Cyperus difformis); assay: Test B flooded paddy test plant response
Method in brief: as §1

[3] = tested on: ducksalad (Heteranthera limosa); assay: Test B flooded paddy test plant response
Method in brief: as §1

[4] = tested on: Russian thistle (Salsola iberica); assay: Test B pre-/postemergence plant response; conditions: Preemergence
Method in brief: (§2)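 Seeds were sown and sprayed preemergence, while plants at 2 to 18 cm (1- to 4-leaf stage) got postemergence sprays. Compounds were formulated in a non-phytotoxic solvent mixture with surfactant. After 13 to 15 days in a greenhouse, injury was rated visually against untreated controls, 0 (no effect) to 100 (complete control).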

soybean (Glycine max) = assay: Test B pre-/postemergence plant response; conditions: Preemergence
Method in brief: as §2

[5] = tested on: morningglory (Ipomoea coccinea); assay: Test B pre-/postemergence plant response; conditions: Preemergence
Method in brief: as §2

[6] = tested on: goosegrass (Eleusine indica); assay: Test B pre-/postemergence plant response; conditions: Preemergence
Method in brief: as §2

[7] = tested on: wheat (Triticum aestivum); assay: Test B pre-/postemergence plant response; conditions: Preemergence
Method in brief: as §2

[8] = tested on: eastern black (E.B.) nightshade (Solanum ptycanthum); assay: Test B pre-/postemergence plant response; conditions: Preemergence
Method in brief: as §2

[9] = tested on: downy bromegrass (Bromus tectorum); assay: Test B pre-/postemergence plant response; conditions: Preemergence
Method in brief: as §2

[10] = tested on: surinam grass (Brachiaria decumbens); assay: Test B pre-/postemergence plant response; conditions: Preemergence
Method in brief: as §2

[11] = tested on: common (oilseed) sunflower (Helianthus annuus); assay: Test B pre-/postemergence plant response; conditions: Preemergence
Method in brief: as §2

[12] = tested on: giant foxtail (Setaria faberii); assay: Test B pre-/postemergence plant response; conditions: Preemergence
Method in brief: as §2

[13] = Flood (flooded paddy test), 62 g ai/ha, scale 0 to 100, 0 no effect, 100 complete control
[14] = Flood (flooded paddy test), 125 g ai/ha, scale 0 to 100, 0 no effect, 100 complete control
[15] = Flood (flooded paddy test), 250 g ai/ha, scale 0 to 100, 0 no effect, 100 complete control
[16] = Flood, 31 g ai/ha, scale 0 to 100
[17] = 16 g ai/ha, scale 0 to 100 (0 no effect, 100 complete control)
[18] = 31 g ai/ha, 0 to 100 scale, 0 no effect, 100 complete control

In the case of `Cc1cc(-c2ccc(C(F)(F)F)cc2)nn1-c1c(O)c(C(C)C)nn(C)c1=O` [Compound 27], the “Plant response rating, Rice” value (rice (Oryza sativa); [13]) is reported as 0, the “Plant response rating, Rice” value (rice (Oryza sativa); [14]) is reported as 0 and the “Plant response rating, Rice” value (rice (Oryza sativa); [15]) is reported as 0. For the same compound, the “Plant response rating, Rice” value (rice (Oryza sativa); [16]) was 0, the “Plant response rating, Barnyardgrass” value [1, 13] was 0 and the “Plant response rating, Barnyardgrass” value [1, 14] was 0. The “Plant response rating, Barnyardgrass” value [1, 15] was 30, the “Plant response rating, Barnyardgrass” value [1, 16] was 0 and the “Plant response rating, Sedge, Umbrella” value [2, 13] was 20. The “Plant response rating, Sedge, Umbrella” value [2, 14] was 30, the “Plant response rating, Sedge, Umbrella” value [2, 15] was 65 and the “Plant response rating, Sedge, Umbrella” value [2, 16] was 20. For the same compound, the “Plant response rating, Ducksalad” value [3, 13] was 40, the “Plant response rating, Ducksalad” value [3, 14] was 60 and the “Plant response rating, Ducksalad” value [3, 15] was 75. For the same compound, the “Plant response rating, Ducksalad” value [3, 16] was 0, the “Plant response rating, Russian Thistle” value [4, 17] was 0 and the “Plant response rating, Russian Thistle” value [4, 18] was 0. The “Plant response rating, Russian Thistle” value ([4]; 62 g ai/ha, scale 0 to 100) was 0, the “Russian Thistle plant response rating” value ([4]; 8 g ai/ha, scale 0 to 100) was 0 and the “Plant response rating, Soybean” value (soybean (Glycine max); [17]) was 0. For the same compound, the “Plant response rating, Soybean” value (soybean (Glycine max); [18]) was 0, the “Plant response rating, Soybean” value (soybean (Glycine max); 62 g ai/ha, scale 0 to 100) was 0 and the “Soybean plant response rating” value (soybean (Glycine max); 8 g ai/ha, scale 0 to 100) was 0. The “Plant response rating, Morningglory” value [5, 17] was 0, the “Plant response rating, Morningglory” value [5, 18] was 0 and the “Plant response rating, Morningglory” value ([5]; 62 g ai/ha, scale 0 to 100) was 0. For the same compound, the “Morningglory plant response rating” value ([5]; 8 g ai/ha, scale 0 to 100) was 0, the “Plant response rating, Goosegrass” value [6, 17] was 75 and the “Plant response rating, Goosegrass” value [6, 18] was 95. For the same compound, the “Plant response rating, Goosegrass” value ([6]; 62 g ai/ha, scale 0 to 100) was 95, the “Goosegrass plant response rating” value ([6]; 8 g ai/ha, scale 0 to 100) was 0 and the “Plant response rating, Wheat” value [7, 17] was 0. The “Plant response rating, Wheat” value [7, 18] was 15, the “Plant response rating, Wheat” value ([7]; 62 g ai/ha, scale 0 to 100) was 45 and the “Wheat plant response rating” value ([7]; 8 g ai/ha, scale 0 to 100) was 0. For the same compound, the “Plant response rating, Nightshade, E. B.” value [8, 17] was 0, the “Plant response rating, Nightshade, E. B.” value [8, 18] was 0 and the “Plant response rating, Nightshade, E. B.” value ([8]; 62 g ai/ha, scale 0 to 100) was 0. For the same compound, the “Nightshade, E. B. plant response rating” value ([8]; 8 g ai/ha, scale 0 to 100) was 0, the “Plant response rating, Bromegrass, Downy” value [9, 17] was 0 and the “Plant response rating, Bromegrass, Downy” value [9, 18] was 50. The “Plant response rating, Bromegrass, Downy” value ([9]; 62 g ai/ha, scale 0 to 100) was 50, the “Bromegrass, Downy plant response rating” value ([9]; 8 g ai/ha, scale 0 to 100) was 0 and the “Plant response rating, Surinam Grass” value [10, 17] was 0. For the same compound, the “Plant response rating, Surinam Grass” value [10, 18] was 0, the “Plant response rating, Surinam Grass” value ([10]; 62 g ai/ha, scale 0 to 100) was 75 and the “Surinam Grass plant response rating” value ([10]; 8 g ai/ha, scale 0 to 100) was 0. The “Plant response rating, Sunflower” value [11, 17] was 0, the “Plant response rating, Sunflower” value [11, 18] was 0 and the “Plant response rating, Sunflower” value ([11]; 62 g ai/ha, scale 0 to 100) was 0. For the same compound, the “Sunflower plant response rating” value ([11]; 8 g ai/ha, scale 0 to 100) was 0, the “Plant response rating, Foxtail, Giant” value [12, 17] was 0 and the “Plant response rating, Foxtail, Giant” value [12, 18] was 0. The “Plant response rating, Foxtail, Giant” value ([12]; 62 g ai/ha, scale 0 to 100) was 20 and the “Foxtail, Giant plant response rating” value ([12]; 8 g ai/ha, scale 0 to 100) was 0.
